{"source": "patent US20040204383A1", "about": "“Lysophosphatidic acid analogs and inhibition of neointima formation” (priority 2003, published 2004)", "key": {"[1]": {"tested_on": "vascular smooth muscle cells", "assay": "Phenotypic modulation and dedifferentiation of cultured VSMCs (morphology, hCAD mRNA)", "assay_type": "cell-based, rat", "conditions": "for morphology of VSMCs: 1 μM for 3 days, cultures established in 2 ng/ml IGF-1", "procedure": "Expression of lysophosphatidic acid-specific G protein-coupled plasma membrane receptors in rat carotid arteries was examined by RT-PCR as described earlier by Wang et al. (2002). To quantify heavy caldesmon mRNA, quantitative PCR was performed applying the real-time SYBR Green PCR method using a Sequence Detection System Model 7700 (Applied Biosystems) instrument. Rat heavy caldesmon and GAPDH (reference control mRNA)-specific primers were designed with Primer Express Software (Applied Biosystems), and forward and reverse primers were as follows: 5′-[…]-3′ (SEQ ID NO:1) and 5′-[…]-3′ (SEQ ID NO:2) for heavy caldesmon; 5′-[…]-3′ (SEQ ID NO:3) and 5′-[…]-3′ (SEQ ID NO:4) for GAPDH. Amplification reaction was performed with SYBR Green PCR Master Mix (Applied Biosystems) following the manufacturer's protocol. mRNA abundance calculation was based on Ct values as described previously (Wang et al., 2002). The expression level of heavy caldesmon mRNA was normalized to GAPDH mRNA. Each PCR reaction was performed at least three times, and the result was expressed as mean±SEM. Statistical comparison of mRNA expression was evaluated by ANOVA, and P<0.05 was considered statistically significant.\nIt has been reported that unsaturated lysophosphatidic acid species induced phenotypic modulation of cultured vascular smooth muscle cells (VSMCs). Because the neointimal response and PPARγ display a similar selectivity for unsaturated lysophosphatidic acid, that activation of PPARγ plays a role in the phenotypic dedifferentiation is hypothesized herein. This hypothesis was tested in a culture system in which IGF-1 maintains the differentiated spindle shape of vascular smooth muscle cells as indicated by high levels of heavy caldesmon (hCAD) mRNA expression."}, "[2]": {"tested_on": "CD36", "assay": "Immunostaining for CD36 in treated rat carotid arteries", "assay_type": "in vivo", "conditions": "LPA 2.5 μM, 4 wk after treatment; LDL data not shown", "procedure": "(§1) FIGS. 7A-D show immunohistological staining for PPARγ in rat carotid arteries. Only a few nuclei show PPARγ immunoreactivity in a carotid artery 4 wk after treatment with 2.5 μM LPA 20:0 (FIG. 7A). In contrast, the multilayered neointima elicited by LPA 20:4 expresses high levels of PPARγ immunoreactivity (FIG. 7B). Activation of PPARγ within neointima in LPA 20:4-treated carotid arteries is indicated by the strong expression of CD36 in a distribution that overlaps that of PPARγ (FIG. 7D). […] Anti-PPARγ and anti-CD36 were from Santa Cruz Biotechnology, Inc. Bars, 250 μm.\nThe scavenger receptor CD36, a PPARγ-regulated gene, contains a PPAR response element within its promoter between base pairs −273 and −261. CD36 plays a critical role in lipid uptake by binding and transporting oxidized lipids, including minimally oxidized LDL. Thus, this pathway could provide a source of ligands, such as lysophosphatidic acid, alkyl-GP, and AZ-PC, to sustain PPARγ activation. Acyl and alkyl forms of lysophosphatidic acid both accumulate in human atherosclerotic plaques. Lysophosphatidic acid activates CD36-mediated lipid uptake into macrophages through a PPARγ-PPRE-dependent mechanism."}, "[3]": {"tested_on": "PPARγ", "assay": "Immunohistological staining for PPARγ in treated rat carotid arteries", "assay_type": "in vivo", "conditions": "LPA 2.5 μM, 4 wk after treatment; LDL data not shown", "procedure": "as §1\nExpression of PPARγ protein was examined in rat carotid arteries exposed to lysophosphatidic acid or minimally oxidized LDL."}, "[4]": {"tested_on": "rat carotid arteries", "assay": "Induction of neointima formation in rat carotid artery by topical application", "assay_type": "in vivo", "conditions": "for neointimal growth: 2.5 μM, 1 h exposure, monitored up to 8 wk (FIG. 4A)", "text": "Briefly, the right carotid artery of anesthetized adult male Sprague-Dawley rats (250-300 g) was surgically exposed. The caudal origin of the common carotid artery was ligated using a vessel clip, followed by exposure and ligation of the internal carotid artery above the bifurcation. The external carotid artery was exposed, and a polyethylene catheter was inserted such that it never reached the common carotid artery, thereby avoiding mechanical injury to the vessel. The clip occluding the common carotid artery was temporarily released, and the vessel was rinsed with a retrograde injection of 500 μl physiological saline to remove residual blood. The vessel was again clipped, and 100 μl of treatment solution was injected. After 60 min of incubation, the cannula was withdrawn, the external carotid artery was ligated, and blood flow was restored. Animals were allowed to recover and were killed 7-56 d later by intracardiac perfusion of 10% buffered formaldehyde (pH 7.4). The common carotid artery from the […] to the bifurcation was dissected, embedded in paraffin, and processed for histological analysis. Five μm-thick sections were cut and stained with hematoxylin and eosin or Masson's trichrome stain. Intima to media ratios were quantified using an image analysis system (Scion Image CMS-800)."}, "[5]": {"tested_on": "CD36(−273)-Rluc reporter gene", "assay": "CD36(−273)-Rluc reporter gene (with PPRE) in CV-1 cells", "assay_type": "cell-based", "conditions": "10 μM, CV-1 cells (FIG. 7E)", "procedure": "(§2) Therefore, the investigators compared the unique in vivo neointima-eliciting lysophosphatidic acid structure-activity relationship with that of PPARγ using an in vitro assay that utilizes an acyl-coenzyme A oxidase-luciferase (PPRE-Acox-Rluc) reporter gene construct containing a peroxisome proliferator-activated receptor response element. CV-1 cells were plated in 96-well plates (5×10^3 cells per well) in DME supplemented with 10% FBS. The next day, the cells were transiently transfected with 125 ng of pGL3-PPRE-acyl-CoA oxidase (Acox)-renilla luciferase), or 125 ng pGL3-CD36(−273), or pGL3-CD36(−261), 62.5 ng of pcDNAI-PPARγ, and 12.5 ng of pSV-β-galactosidase (Promega) using LipofectAMINE™ 2000 (Invitrogen). Twenty four hours after transfection, cells were treated with 1% FBS-supplemented OptiMEMI™ (Invitrogen) containing DMSO or test compound (10 μM) in DMSO for 20 h. Luciferase and β-galactosidase activities were measured with the Steady-Glo® Luciferase Assay System (Promega) and the Galacto-Light Plus™ System (Applied Biosystems), respectively. Samples were run in quadruplicate, and the mean±SE were calculated. Data are representative of at least three independent transfections. Student's t test was used for null hypothesis testing, and P<0.05 was considered significant."}, "[6]": {"tested_on": "CD36(−261)-Rluc reporter gene", "assay": "CD36(−261)-Rluc reporter gene (deleted PPRE) in CV-1 cells", "assay_type": "cell-based", "conditions": "10 μM, CV-1 cells (FIG. 7E)", "procedure": "as §2"}, "[7]": {"biological_target": "LPA1 (Homo sapiens, UniProt Q92633)", "sequence (Q92633 whole entry, species assumed)": "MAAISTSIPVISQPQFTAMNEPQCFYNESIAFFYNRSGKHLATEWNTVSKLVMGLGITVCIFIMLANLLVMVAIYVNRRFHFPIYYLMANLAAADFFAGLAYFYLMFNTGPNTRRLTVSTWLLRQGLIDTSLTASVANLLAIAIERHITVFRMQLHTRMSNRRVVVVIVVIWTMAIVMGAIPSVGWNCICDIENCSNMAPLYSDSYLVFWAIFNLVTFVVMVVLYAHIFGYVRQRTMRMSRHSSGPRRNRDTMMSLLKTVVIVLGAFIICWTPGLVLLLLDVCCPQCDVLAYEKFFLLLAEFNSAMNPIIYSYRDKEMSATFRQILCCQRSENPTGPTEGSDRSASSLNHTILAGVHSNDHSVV", "conditions": "cited from earlier work"}, "[8]": {"biological_target": "LPA2 (Homo sapiens, UniProt Q9HBW0)", "sequence (Q9HBW0 whole entry, species assumed)": "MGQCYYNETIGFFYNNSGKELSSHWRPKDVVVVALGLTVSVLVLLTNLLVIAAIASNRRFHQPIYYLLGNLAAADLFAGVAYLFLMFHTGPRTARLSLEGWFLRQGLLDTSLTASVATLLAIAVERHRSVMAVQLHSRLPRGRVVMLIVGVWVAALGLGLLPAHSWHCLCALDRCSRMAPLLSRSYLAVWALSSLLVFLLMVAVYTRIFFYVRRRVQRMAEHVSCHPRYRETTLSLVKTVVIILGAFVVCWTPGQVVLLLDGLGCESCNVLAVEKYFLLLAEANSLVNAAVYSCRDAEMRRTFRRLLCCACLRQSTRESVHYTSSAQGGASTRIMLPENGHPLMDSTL", "conditions": "cited from earlier work"}, "[9]": {"biological_target": "T1, LPA3 (Homo sapiens, UniProt Q9UBY5)", "T1 sequence (Q9UBY5 1-353)": "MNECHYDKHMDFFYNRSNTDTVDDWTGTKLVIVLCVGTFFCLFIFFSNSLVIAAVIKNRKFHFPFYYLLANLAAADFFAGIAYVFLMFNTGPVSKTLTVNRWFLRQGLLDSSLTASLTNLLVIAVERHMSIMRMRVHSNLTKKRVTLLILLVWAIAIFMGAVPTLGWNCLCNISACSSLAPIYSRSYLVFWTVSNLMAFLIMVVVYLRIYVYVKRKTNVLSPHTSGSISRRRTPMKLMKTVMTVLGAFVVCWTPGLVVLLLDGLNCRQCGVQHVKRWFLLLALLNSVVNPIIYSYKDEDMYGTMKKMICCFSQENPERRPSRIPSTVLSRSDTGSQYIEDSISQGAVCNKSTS", "conditions": "cited from earlier work"}}}
{"compound": "CCCCCCCCCCCCCCCCCCCC(=O)OC[C@@H](O)COP(=O)(O)O", "note": "[LPA 20:0]", "values": [{"measurement": "morphology of VSMCs", "setting": "[1]", "result": "maintained the spindle-like differentiated morphology"}, {"measurement": "CD36 immunoreactivity in carotid artery", "setting": "[2]", "result": "no increase in immunoreactivity"}, {"measurement": "PPARγ immunoreactivity in carotid artery", "setting": "[3]", "result": "only a few stained nuclei"}, {"measurement": "neointimal growth", "setting": "[4]", "result": "completely inactive"}]}
{"compound": "CCCCC/C=C\\C/C=C\\C/C=C\\C/C=C\\CCCC(=O)OC[C@@H](O)COP(=O)(O)O", "note": "[LPA 20:4]", "values": [{"measurement": "morphology of VSMCs", "setting": "[1]", "result": "developed a fibroblast-like flattened morphology"}, {"measurement": "decrease of hCAD mRNA expression", "setting": "[1]; quantitative RT-PCR, day 5 (FIG. 8I)", "result": "most pronounced"}, {"measurement": "stimulation of CD36(−273)-Rluc reporter gene", "setting": "[5]", "result": "elicited significant stimulation"}, {"measurement": "CD36 immunoreactivity in carotid artery", "setting": "[2]", "result": "intense CD36 immunoreactivity"}, {"measurement": "PPARγ immunoreactivity in carotid artery", "setting": "[3]", "result": "intense PPARγ immunoreactivity"}, {"measurement": "neointimal growth", "setting": "[4]", "result": "elicited progressive neointimal growth"}, {"measurement": "neointima formation when delivered as BSA complexes", "setting": "[4]; Rosi 10 μM, LPA 20:4 2.5 μM, 10 μM albumin, 2 wk after treatment (FIG. 7F)", "result": "elicited neointima formation"}, {"measurement": "neointima formation when delivered in rat plasma or serum", "setting": "[4]; Rosi 10 μM, LPA 20:4 2.5 μM, 2 wk after treatment (FIG. 7F)", "result": "no neointima formation was detected"}, {"measurement": "stimulation of CD36(−261)-Rluc reporter gene (deleted PPRE)", "setting": "[6]", "result": "neither Rosi nor lysophosphatidic acid 20:4 activated the reporter gene"}]}
{"compound": "CCCCCCCCCCCCOP(=O)(O)O", "note": "[fatty alcohol phosphate 12:0]", "values": [{"measurement": "activity at LPA1", "setting": "[7]", "result": "without any effect"}, {"measurement": "activity at LPA2", "setting": "[8]", "result": "specific agonist"}, {"measurement": "activity at LPA3", "setting": "[9]", "result": "antagonist"}]}
